Results taken from patent publication US10259808B2 (Genentech, Inc., priority 2015, dated 2019).

The compounds below were run against T1, RORc ligand binding domain (Homo sapiens, UniProt P51449) (assay: In vitro RORc ligand binding assay (25-[3H]hydroxycholesterol displacement)).
T1 sequence (P51449 269-508 limits assumed): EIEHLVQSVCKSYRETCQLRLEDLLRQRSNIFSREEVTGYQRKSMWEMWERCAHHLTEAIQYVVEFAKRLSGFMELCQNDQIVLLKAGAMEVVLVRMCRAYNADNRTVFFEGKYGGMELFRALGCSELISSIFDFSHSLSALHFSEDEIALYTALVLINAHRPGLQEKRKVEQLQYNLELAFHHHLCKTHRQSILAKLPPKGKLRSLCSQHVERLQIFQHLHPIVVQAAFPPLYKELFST

SMILES | IC50 [nM]
Cc1cc(NC(=O)C2(c3ccc(CN4[C@@H](C)CC[C@H](c5ccccc5)S4(=O)=O)c(F)c3)CCOCC2)n(C)n1 (stereo in doubt) [Example 14, N-(2,5-dimethylpyrazol-3-yl)-4-[3-fluoro-4-[[(3S,6R)-3-methyl-1,1-dioxo-6-phenyl-thiazinan-2-yl]methyl]phenyl]tetrahydropyran-4-carboxamide] | 63.6
Cc1n[nH]cc1C(=O)NC1(c2cc(F)c(CN3[C@@H](C)CC[C@H](c4ccccc4)S3(=O)=O)cc2F)COC1 (stereo in doubt) [Example 130, N-[3-[2,5-difluoro-4-[[(3S,6R)-3-methyl-1,1-dioxo-6-phenyl-thiazinan-2-yl]methyl]phenyl]oxetan-3-yl]-3-methyl-1H-pyrazole-4-carboxamide] | 126
C[C@H]1CC[C@H](c2ccccc2)S(=O)(=O)N1Cc1cc(F)c(C2(NC(=O)c3cnn(C)c3)COC2)cc1F (stereo in doubt) [Example 131, N-[3-[2,5-difluoro-4-[[(3S,6R)-3-methyl-1,1-dioxo-6-phenyl-thiazinan-2-yl]methyl]phenyl]oxetan-3-yl]-1-methyl-pyrazole-4-carboxamide] | 208
C[C@H]1CC[C@H](c2ccccc2)S(=O)(=O)N1Cc1cc(F)c(C2(NC(=O)c3ncc[nH]3)COC2)cc1F (stereo in doubt) [Example 133, N-[3-[2,5-difluoro-4-[[(3S,6R)-3-methyl-1,1-dioxo-6-phenyl-thiazinan-2-yl]methyl]phenyl]oxetan-3-yl]-1H-imidazole-2-carboxamide] | 133
C[C@H]1CC[C@H](c2ccccc2)S(=O)(=O)N1Cc1ccc(C2(C(=O)NC3COC3)CCOCC2)cc1F [Example 1] | 110
Cc1nocc1CNC(=O)C1(c2ccc(CN3[C@@H](C)CC[C@H](c4ccccc4)S3(=O)=O)c(F)c2)CCOCC1 [Example 2] | 63.8
C[C@H]1CC[C@H](c2ccccc2)S(=O)(=O)N1Cc1ccc(C2(C(=O)NCc3ccno3)CCOCC2)cc1F [Example 4] | 75.7
C[C@H]1CC[C@H](c2ccccc2)S(=O)(=O)N1Cc1ccc(C2(C(=O)NCCN3CCC(O)CC3)CCOCC2)cc1F [Example 5] | 1860
C[C@H]1CC[C@H](c2ccccc2)S(=O)(=O)N1Cc1ccc(C2(C(=O)Nc3ncnn3C)CCOCC2)cc1F [Example 7] | 299
C[C@H]1CC[C@H](c2ccccc2)S(=O)(=O)N1Cc1ccc(C2(C(=O)NC3CCOC3)CCOCC2)cc1F (stereo partly drawn) [Example 8, 4-[3-fluoro-4-[[(3S,6R)-3-methyl-1,1-dioxo-6-phenyl-thiazinan-2-yl]methyl]phenyl]-N-tetrahydrofuran-3-yl-tetrahydropyran-4-carboxamide] | 101
C[C@H]1CC[C@H](c2ccccc2)S(=O)(=O)N1Cc1ccc(C2(C(=O)NC3(C)COC3)CCOCC2)cc1F [Example 9, 4-[3-fluoro-4-[[(3S,6R)-3-methyl-1,1-dioxo-6-phenyl-thiazinan-2-yl]methyl]phenyl]-N-(3-methyloxetan-3-yl)tetrahydropyran-4-carboxamide] | 144
C[C@H]1CC[C@H](c2ccccc2)S(=O)(=O)N1Cc1ccc(C2(C(=O)NCc3cnccn3)CCOCC2)cc1F [Example 10] | 173
C[C@H]1CC[C@H](c2ccccc2)S(=O)(=O)N1Cc1ccc(C2(C(=O)NCC3CCOC3)CCOCC2)cc1F (some centres unmarked) [Example 11] | 161
CCn1nccc1NC(=O)C1(c2ccc(CN3[C@@H](C)CC[C@H](c4ccccc4)S3(=O)=O)c(F)c2)CCOCC1 [Example 13] | 63.2
CC(=O)OCc1nc(C2(c3ccc(CN4[C@@H](C)CC[C@H](c5ccccc5)S4(=O)=O)c(F)c3)CCOCC2)no1 [Example 27, [3-[4-[3-fluoro-4-[[(3S,6R)-3-methyl-1,1-dioxo-6-phenyl-thiazinan-2-yl]methyl]phenyl]tetrahydropyran-4-yl]-1,2,4-oxadiazol-5-yl]methyl acetate] | 109
C[C@H]1CC[C@H](c2ccccc2)S(=O)(=O)N1Cc1ccc(C2(c3noc(CN(C)C)n3)CCOCC2)cc1F [Example 28, 1-[3-[4-[3-fluoro-4-[[(3S,6R)-3-methyl-1,1-dioxo-6-phenyl-thiazinan-2-yl]methyl]phenyl]tetrahydropyran-4-yl]-1,2,4-oxadiazol-5-yl]-N,N-dimethyl-methanamine] | 465
C[C@H]1CC[C@H](c2ccccc2)S(=O)(=O)N1Cc1ccc(C2(c3noc(CO)n3)CCOCC2)cc1F [Example 29, [3-[4-[3-fluoro-4-[[(3S,6R)-3-methyl-1,1-dioxo-6-phenyl-thiazinan-2-yl]methyl]phenyl]tetrahydropyran-4-yl]-1,2,4-oxadiazol-5-yl]methanol] | 63.6
C[C@H]1CC[C@H](c2ccccc2)S(=O)(=O)N1Cc1ccc(C2(c3noc(=O)[nH]3)CCOCC2)cc1F [Example 30, 3-[4-[3-fluoro-4-[[(3S,6R)-3-methyl-1,1-dioxo-6-phenyl-thiazinan-2-yl]methyl]phenyl]tetrahydropyran-4-yl]-4H-1,2,4-oxadiazol-5-one] | 245
C[C@H]1CC[C@H](c2ccccc2)S(=O)(=O)N1Cc1cc(F)c(C2(C(=O)N3CC[C@@H](O)C3)CCOCC2)cc1F [Example 32, [4-[2,5-difluoro-4-[[(3S,6R)-3-methyl-1,1-dioxo-6-phenyl-thiazinan-2-yl]methyl]phenyl]tetrahydropyran-4-yl]-[(3R)-3-hydroxypyrrolidin-1-yl]methanone] | 79
C[C@H]1CC[C@H](c2ccccc2)S(=O)(=O)N1Cc1cc(F)c(C2(C(=O)N3CC[C@H](O)C3)CCOCC2)cc1F [Example 34, [4-[2,5-difluoro-4-[[(3S,6R)-3-methyl-1,1-dioxo-6-phenyl-thiazinan-2-yl]methyl]phenyl]tetrahydropyran-4-yl]-[(3S)-3-hydroxypyrrolidin-1-yl]methanone] | 98.5
C[C@H]1CC[C@H](c2ccccc2)S(=O)(=O)N1Cc1cc(F)c(C2(C(=O)N3CCOCC3)CCOCC2)cc1F [Example 37, [4-[2,5-difluoro-4-[[(3S,6R)-3-methyl-1,1-dioxo-6-phenyl-thiazinan-2-yl]methyl]phenyl]tetrahydropyran-4-yl]-morpholino-methanone] | 106

These reach a lower IC50. Values come first.

IC50 [nM] | SMILES
50.7 | C[C@H]1CC[C@H](c2ccccc2)S(=O)(=O)N1Cc1cc(F)c(C2(NC(=O)c3c[nH]cn3)COC2)cc1F (stereo in doubt) [Example 134, N-[3-[2,5-difluoro-4-[[(3S,6R)-3-methyl-1,1-dioxo-6-phenyl-thiazinan-2-yl]methyl]phenyl]oxetan-3-yl]-1H-imidazole-4-carboxamide]
35 | Cc1ccn(C(=O)C2(c3cc(F)c(CN4[C@@H](C)CC[C@H](c5ccccc5)S4(=O)=O)cc3F)CCOCC2)n1 [Example 38, [4-[2,5-difluoro-4-[[(3S,6R)-3-methyl-1,1-dioxo-6-phenyl-thiazinan-2-yl]methyl]phenyl]tetrahydropyran-4-yl]-(3-methylpyrazol-1-yl)methanone]
32.5 | C[C@H]1CC[C@H](c2ccccc2)S(=O)(=O)N1Cc1ccc(C2(C(=O)NCc3cn[nH]c3)CCOCC2)cc1F [Example 17, 4-[3-fluoro-4-[[(3S,6R)-3-methyl-1,1-dioxo-6-phenyl-thiazinan-2-yl]methyl]phenyl]-N-(1H-pyrazol-4-ylmethyl)tetrahydropyran-4-carboxamide]
32.3 | C[C@H]1CC[C@H](c2ccccc2)S(=O)(=O)N1Cc1cc(F)c(C2(NC(=O)C3CCOC3)COC2)cc1F (stereo in doubt) [Example 129, N-[3-[2,5-difluoro-4-[[(3S,6R)-3-methyl-1,1-dioxo-6-phenyl-thiazinan-2-yl]methyl]phenyl]oxetan-3-yl]tetrahydrofuran-3-carboxamide]
23.4 | C[C@H]1CC[C@H](c2ccccc2)S(=O)(=O)N1Cc1cc(F)c(C2(C(=O)NCc3ccnn3C)CCOCC2)cc1F [Example 33, 4-[2,5-difluoro-4-[[(3S,6R)-3-methyl-1,1-dioxo-6-phenyl-thiazinan-2-yl]methyl]phenyl]-N-[(2-methylpyrazol-3-yl)methyl]tetrahydropyran-4-carboxamide]
14.3 | C[C@H]1CC[C@H](c2ccccc2)S(=O)(=O)N1Cc1ccc(C2(c3nc(C4CC4)no3)CCOCC2)cc1F [Example 23]
12.3 | Cc1cc(N)n(C(=O)C2(c3ccc(CN4[C@@H](C)CC[C@H](c5ccccc5)S4(=O)=O)c(F)c3)CCOCC2)n1 [Example 19]
11.1 | C[C@H]1CC[C@H](c2ccccc2)S(=O)(=O)N1Cc1ccc(C2(CN3CCOCC3)CCOCC2)cc1F [Example 24]
10 | C[C@H]1CC[C@H](c2ccccc2)S(=O)(=O)N1Cc1cc(F)c(C2(C(=O)n3ccc(N)n3)CCOCC2)cc1F [Example 35, (3-aminopyrazol-1-yl)-[4-[2,5-difluoro-4-[[(3S,6R)-3-methyl-1,1-dioxo-6-phenyl-thiazinan-2-yl]methyl]phenyl]tetrahydropyran-4-yl]methanone]
9.4 | CNC(=O)c1nc(CNC(=O)C2(c3ccc(CN4[C@@H](C)CC[C@H](c5ccccc5)S4(=O)=O)c(F)c3)CCOCC2)no1 [Example 15, 3-[[[4-[3-fluoro-4-[[(3S,6R)-3-methyl-1,1-dioxo-6-phenyl-thiazinan-2-yl]methyl]phenyl]tetrahydropyran-4-carbonyl]amino]methyl]-N-methyl-1,2,4-oxadiazole-5-carboxamide]
1.9 | Cc1cc(N)nn1C(=O)C1(c2ccc(CN3[C@@H](C)CC[C@H](c4ccccc4)S3(=O)=O)c(F)c2)CCOCC1 [Example 21, (3-amino-5-methyl-pyrazol-1-yl)-[4-[3-fluoro-4-[[(3S,6R)-3-methyl-1,1-dioxo-6-phenyl-thiazinan-2-yl]methyl]phenyl]tetrahydropyran-4-yl]methanone]
